This note sets out measurements from patent publication EP0154476A2, “Steroid compound” (STERWIN AG., priority 1984, dated 1985).

In one assay the test system is plasma cortisol. The experiment in a line: plasma cortisol by radioimmunoassay after oral trilostane in volunteers. The format is in vivo, healthy male volunteers. Particulars: trilostane 2 x 60 mg capsules orally, fasted, plasma up to 8 hours; during sustained plasma peaks of trilostane and 17-keto metabolite.
A short description of assay [1]: cytochemical bioassay in unfixed tissue sections of dioestrous rat ovary (formazan dye absorbance). The format is biochemical. Particulars: versus trilostane, weight for weight basis, standard curves 0.15 to 2.5 µM (nM), 95% confidence 1.4-2.1. Here is the method:
In a first study, a cytochemical bioassay was employed to determine the relative potency of the 17- keto trilostane metabolite versus trilostane, in three experiments. From the results obtained, standard curves covering the range from 0.15 to 2.5nM were prepared for the metabolite and the parent compound. Potency estimates were calculated by computer analysis of the relative slopes and errors around each dose point.
The cytochemical bioassay is based upon the reaction, within serial unfixed tissue sections of the dioestrous rat ovary, between the enzyme, […] -A^5-3-oxosteroid isomerase (38 HSD) contained therein, and added substrate, cofactors and a colourless tetrazolium salt. The reaction leads to the deposition of an intensely coloured blue insoluble formazan dye in the sections, and the amount of dye produced within a section over a given period (absorbance) is measured by means of a scanning integrating densitometer. If an inhibitor of 3a HSD, such as trilostane or 17-keto trilostane metabolite is added to the system, the amount of blue dye formed will be reduced.
The bioassay curves obtained are as shown in Figure 1 of the accompanying drawings, results being expressed as the mean +SD(n=4).

With `C[C@]12CC[C@H]3[C@@H](CC[C@@]45O[C@@H]4C(O)=C(C#N)C[C@]35C)[C@@H]1CC[C@@H]2O` [trilostane, 2a-cyano-4a,5a-epoxyandrostan-17a-ol-3-one], in the assay on plasma cortisol, the cortisol secretion result is “suppressed”. Turning to `C[C@]12CC[C@H]3[C@@H](CC[C@@]45O[C@@H]4C(=O)[C@H](C#N)C[C@]35C)[C@@H]1CCC2=O` [17-keto metabolite, 2α-cyano-4α,5α-epoxyandrostan-3,17-dione], the “relative in vitro potency compared with the parent compound” value is “about 1.7 times” in assay [1] and 1.71 times in assay [1] (listed as metabolite).
